In brackets after ≈: the same amount, converted by molar mass.
Assays:
[1] = Cellular CaCo2 permeability assay from apical to basal (A-B); type: in vitro ADME; settings: human, Caco-2, read-out: Pe A-B (permeability)
Text: The permeability in 10^−6 cm/s of compounds of formula (I) have been confirmed for selected example using a cellular CaCo2 permeability assay from apical to basal (A-B): […]

PI3K delta = target: T1, PI3K delta (Homo sapiens, UniProt O00329); assay: PI3K delta kinase assay (Kinase-Glo luminescence); type: biochemical
T1 construct: for the full-length p110-d subunit are generated and fused by overlapping PCR; p85(iSH2) fusion partner (see partner chain) (N); His tag (C); made in house; host or cells: baculovirus; Tn5 (Trichoplusia ni) or TiniPro insect cells
T1 sequence (O00329 with tags, fused parts or gaps limits assumed): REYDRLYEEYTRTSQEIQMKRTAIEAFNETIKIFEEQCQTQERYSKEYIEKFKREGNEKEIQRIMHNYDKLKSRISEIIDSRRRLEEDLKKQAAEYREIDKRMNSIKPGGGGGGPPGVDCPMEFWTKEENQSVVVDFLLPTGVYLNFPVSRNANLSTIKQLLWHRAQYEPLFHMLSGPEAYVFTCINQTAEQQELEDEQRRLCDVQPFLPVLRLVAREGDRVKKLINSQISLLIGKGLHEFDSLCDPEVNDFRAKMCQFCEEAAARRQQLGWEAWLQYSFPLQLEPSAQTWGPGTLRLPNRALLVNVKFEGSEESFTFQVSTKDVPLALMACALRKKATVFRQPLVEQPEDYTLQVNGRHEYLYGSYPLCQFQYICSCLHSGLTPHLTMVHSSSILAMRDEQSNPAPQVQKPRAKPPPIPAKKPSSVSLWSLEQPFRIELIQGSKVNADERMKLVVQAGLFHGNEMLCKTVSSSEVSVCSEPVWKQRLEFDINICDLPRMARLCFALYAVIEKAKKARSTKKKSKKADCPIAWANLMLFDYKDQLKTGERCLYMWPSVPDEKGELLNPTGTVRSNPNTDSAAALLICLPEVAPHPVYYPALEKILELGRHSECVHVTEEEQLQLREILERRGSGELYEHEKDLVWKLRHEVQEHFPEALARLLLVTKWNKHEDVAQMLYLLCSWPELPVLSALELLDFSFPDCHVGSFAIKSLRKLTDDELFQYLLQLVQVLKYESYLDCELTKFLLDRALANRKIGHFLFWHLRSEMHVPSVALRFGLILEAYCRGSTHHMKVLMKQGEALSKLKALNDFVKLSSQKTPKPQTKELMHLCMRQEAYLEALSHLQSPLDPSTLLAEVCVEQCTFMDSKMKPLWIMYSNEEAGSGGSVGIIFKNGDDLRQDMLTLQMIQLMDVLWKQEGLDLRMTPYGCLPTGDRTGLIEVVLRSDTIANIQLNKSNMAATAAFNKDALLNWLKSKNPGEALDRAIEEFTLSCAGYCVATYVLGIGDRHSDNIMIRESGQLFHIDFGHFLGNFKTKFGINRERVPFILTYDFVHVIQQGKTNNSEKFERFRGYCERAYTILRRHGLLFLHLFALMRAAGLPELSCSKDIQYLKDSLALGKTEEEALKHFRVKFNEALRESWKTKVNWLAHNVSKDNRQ
Summary of the method: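 ATP 1 μM, PI 10 μg/mL, PI3Kδ construct BV1060 10 nM (final); 10 mM Tris pH 7.5, 3 mM MgCl2, 50 mM NaCl, 0.05% CHAPS, 1 mM DTT; 60 min RT; Kinase-Glo stop, luminescence.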

[2] = In vitro skin penetration and permeation, pig skin in static Franz-type diffusion cells; type: in vitro ADME; settings: 0.5% solution in propylene glycol, 48 hours exposure, mean ± SD of triplicate; for Skin concentration: after removal of stratum corneum; for Permeation rate: receiver
Procedure: The skin penetration/permeation properties of two representative compounds of the present invention were tested as follows:
The compounds were applied as 0.5% solutions in propylene glycol to pig skin mounted in static Franz-type diffusion cells. At the end of a 48 hours exposure time, drug concentrations were measured in the skin (after removal of stratum corneum) and in the receiver.

PI3K beta = target: T2, PI3K beta (Homo sapiens, UniProt P42338); assay: PI3K beta kinase assay (Kinase-Glo luminescence); type: biochemical
T2 construct: for the full-length p110-b subunit are generated and fused by overlapping PCR; p85(iSH2) fusion partner (see partner chain) (N); His tag (C); made in house; host or cells: baculovirus; Tn5 (Trichoplusia ni) or TiniPro insect cells
T2 sequence (P42338 with tags, fused parts or gaps limits assumed): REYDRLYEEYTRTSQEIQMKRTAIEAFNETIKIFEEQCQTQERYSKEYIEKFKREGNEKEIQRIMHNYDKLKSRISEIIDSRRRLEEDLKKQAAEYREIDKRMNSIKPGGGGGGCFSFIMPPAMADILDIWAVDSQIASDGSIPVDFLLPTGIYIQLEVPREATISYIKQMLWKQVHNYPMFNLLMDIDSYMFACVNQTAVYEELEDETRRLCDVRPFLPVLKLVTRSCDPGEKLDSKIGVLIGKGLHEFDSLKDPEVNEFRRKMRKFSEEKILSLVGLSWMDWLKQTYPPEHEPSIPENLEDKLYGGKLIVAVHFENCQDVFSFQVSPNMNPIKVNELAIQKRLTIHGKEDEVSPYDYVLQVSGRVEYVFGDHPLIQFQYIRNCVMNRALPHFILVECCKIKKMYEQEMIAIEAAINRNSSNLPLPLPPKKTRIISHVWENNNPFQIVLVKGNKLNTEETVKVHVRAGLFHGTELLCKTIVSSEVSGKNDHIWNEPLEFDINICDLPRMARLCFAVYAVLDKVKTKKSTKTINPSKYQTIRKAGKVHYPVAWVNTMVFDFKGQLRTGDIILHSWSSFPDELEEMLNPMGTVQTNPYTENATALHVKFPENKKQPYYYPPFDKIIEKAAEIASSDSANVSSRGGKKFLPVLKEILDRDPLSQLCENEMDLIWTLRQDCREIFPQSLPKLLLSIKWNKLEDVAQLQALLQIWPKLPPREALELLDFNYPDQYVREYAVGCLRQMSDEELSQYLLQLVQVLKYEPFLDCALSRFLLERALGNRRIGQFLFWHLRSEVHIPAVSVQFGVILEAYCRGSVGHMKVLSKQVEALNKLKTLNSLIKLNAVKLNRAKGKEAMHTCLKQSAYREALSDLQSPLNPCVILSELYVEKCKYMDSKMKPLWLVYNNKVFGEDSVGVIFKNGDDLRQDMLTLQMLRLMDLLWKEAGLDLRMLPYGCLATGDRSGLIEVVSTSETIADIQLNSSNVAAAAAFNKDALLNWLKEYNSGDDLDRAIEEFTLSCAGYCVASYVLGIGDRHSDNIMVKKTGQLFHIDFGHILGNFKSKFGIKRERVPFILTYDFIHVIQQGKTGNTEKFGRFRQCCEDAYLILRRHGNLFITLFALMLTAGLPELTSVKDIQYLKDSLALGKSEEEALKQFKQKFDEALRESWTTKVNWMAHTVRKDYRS
Summary of the method: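 p110β full-length/p85 iSH2 construct (BV-949), 25 nM, with 1 μM ATP and 10 μg/mL phosphatidylinositol in 10 mM Tris pH 7.5, 3 mM MgCl2, 50 mM NaCl, 0.05% CHAPS, 1 mM DTT. 60 min at room temperature; ATP remaining read by Kinase-Glo luminescence. IC50 from 8-point four-parameter logistic fit.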

[3] = Solubility in the organic solvents PEG400, propyleneglycol and ethanol; type: physicochemical; settings: organic solvent or mixture
Text: Compounds of the invention display particularly high solubilities in organic solvents. The compounds of the invention are thus particularly useful for topical administration, e.g. to a mammal such as a human, e.g. to the skin of said mammal. The compounds are thus useful for formulation into compositions suitable for topical administration. Compounds displaying high solubility thus provide an advantage for topical administration over compounds having a lower solubility.
The solubility of certain compounds was determined in the organic solvents PEG400, propyleneglycol and ethanol.

PI3K alpha = target: T3, PI3K alpha (Homo sapiens, UniProt P42336); assay: PI3K alpha kinase assay (Kinase-Glo luminescence); type: biochemical
T3 construct: p85(iSH2) fusion partner (see partner chain) (N); His tag (C); made in house; host or cells: baculovirus; Tn5 (Trichoplusia ni) or TiniPro insect cells
T3 sequence (P42336 with tags, fused parts or gaps limits assumed): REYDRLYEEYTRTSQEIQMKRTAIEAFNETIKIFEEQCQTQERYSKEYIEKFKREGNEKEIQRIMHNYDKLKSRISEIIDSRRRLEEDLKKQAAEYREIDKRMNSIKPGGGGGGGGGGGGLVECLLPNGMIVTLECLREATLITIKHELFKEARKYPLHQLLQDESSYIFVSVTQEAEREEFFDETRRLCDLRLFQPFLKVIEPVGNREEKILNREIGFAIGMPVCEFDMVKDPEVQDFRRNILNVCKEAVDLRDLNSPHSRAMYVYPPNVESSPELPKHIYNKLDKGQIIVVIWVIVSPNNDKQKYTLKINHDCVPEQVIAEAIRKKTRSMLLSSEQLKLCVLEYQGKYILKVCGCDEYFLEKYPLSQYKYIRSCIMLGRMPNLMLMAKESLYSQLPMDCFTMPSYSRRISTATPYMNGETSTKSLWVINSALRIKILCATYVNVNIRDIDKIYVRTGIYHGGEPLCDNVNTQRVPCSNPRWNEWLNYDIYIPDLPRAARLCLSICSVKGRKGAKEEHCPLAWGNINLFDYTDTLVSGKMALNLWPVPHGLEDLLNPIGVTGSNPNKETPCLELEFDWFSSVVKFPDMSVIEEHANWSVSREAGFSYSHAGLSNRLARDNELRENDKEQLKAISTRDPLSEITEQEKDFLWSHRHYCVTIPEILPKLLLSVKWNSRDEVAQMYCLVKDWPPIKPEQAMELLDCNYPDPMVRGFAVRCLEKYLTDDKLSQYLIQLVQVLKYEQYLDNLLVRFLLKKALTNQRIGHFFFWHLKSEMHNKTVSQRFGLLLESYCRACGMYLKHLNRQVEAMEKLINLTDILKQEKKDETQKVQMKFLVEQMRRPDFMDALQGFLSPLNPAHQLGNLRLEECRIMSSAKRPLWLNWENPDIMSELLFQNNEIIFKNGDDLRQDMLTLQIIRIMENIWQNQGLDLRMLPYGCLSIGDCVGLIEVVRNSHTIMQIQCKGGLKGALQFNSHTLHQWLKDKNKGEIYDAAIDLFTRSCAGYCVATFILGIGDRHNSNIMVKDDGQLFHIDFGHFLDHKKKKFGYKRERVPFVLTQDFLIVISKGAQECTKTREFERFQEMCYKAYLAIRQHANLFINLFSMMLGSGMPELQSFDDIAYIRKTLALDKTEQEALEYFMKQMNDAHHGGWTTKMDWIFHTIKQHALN
Summary of the method: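 Compounds are titrated at 8 concentrations and mixed with PI3Kα protein (EMV B1075, 10 nM) in phosphatidylinositol (10 μg/mL). ATP at 1 μM starts the 60-minute room-temperature reaction, which is stopped with Kinase-Glo before luminescence reading. Four-parameter curve fitting gives IC50.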

PI3K gamma = target: T4, PI3K gamma (Homo sapiens, UniProt P48736); assay: PI3K gamma kinase assay (Kinase-Glo luminescence); type: biochemical
T4 construct: His tag (C); made in house; host or cells: baculovirus (pVL1393); Tn5 or TiniPro insect cells; construct from Roger Williams lab, MRC LMB
T4 sequence (P48736 144-1102 limits assumed): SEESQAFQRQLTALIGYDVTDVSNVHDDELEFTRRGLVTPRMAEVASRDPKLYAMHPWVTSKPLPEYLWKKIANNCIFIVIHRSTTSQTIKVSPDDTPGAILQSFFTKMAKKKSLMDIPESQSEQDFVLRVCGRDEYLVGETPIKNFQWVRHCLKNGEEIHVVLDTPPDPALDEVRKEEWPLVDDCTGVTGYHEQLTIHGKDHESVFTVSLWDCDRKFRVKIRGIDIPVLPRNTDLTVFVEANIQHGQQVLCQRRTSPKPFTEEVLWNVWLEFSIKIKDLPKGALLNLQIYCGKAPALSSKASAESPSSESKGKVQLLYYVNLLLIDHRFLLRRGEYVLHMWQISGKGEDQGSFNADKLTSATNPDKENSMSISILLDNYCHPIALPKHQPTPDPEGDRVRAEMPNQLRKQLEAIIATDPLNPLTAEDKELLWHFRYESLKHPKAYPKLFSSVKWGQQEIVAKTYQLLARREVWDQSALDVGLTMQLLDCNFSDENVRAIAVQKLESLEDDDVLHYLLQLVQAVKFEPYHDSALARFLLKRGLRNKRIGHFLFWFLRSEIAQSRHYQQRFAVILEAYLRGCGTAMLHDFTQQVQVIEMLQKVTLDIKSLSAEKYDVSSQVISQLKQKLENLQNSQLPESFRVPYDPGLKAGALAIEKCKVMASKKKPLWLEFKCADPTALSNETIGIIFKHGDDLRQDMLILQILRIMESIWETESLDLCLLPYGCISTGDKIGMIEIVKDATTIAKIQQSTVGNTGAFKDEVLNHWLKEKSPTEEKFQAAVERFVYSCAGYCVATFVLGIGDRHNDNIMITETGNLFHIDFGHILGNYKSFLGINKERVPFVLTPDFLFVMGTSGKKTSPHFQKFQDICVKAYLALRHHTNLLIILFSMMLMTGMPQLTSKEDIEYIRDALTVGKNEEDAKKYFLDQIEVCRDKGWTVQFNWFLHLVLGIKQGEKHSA
Summary of the method: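 Luminescent ATP-depletion (Kinase-Glo) assay with 150 nM PI3Kγ, 1 μM ATP and 10 μg/mL phosphatidylinositol in 10 mM Tris-HCl pH 7.5, 3 mM MgCl2, 50 mM NaCl, 0.05% CHAPS, 1 mM DTT; 120 min at room temperature. Eight-point dilutions; IC50 by four-parameter logistic fit.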

[4] = absolute ethanol, excipient Ethanol abs.
[5] = propylene glycol, excipient Propyleneglycol

Structure (SMILES)	Papp A→B [1] [×10⁻⁶ cm/s]	IC50 (PI3K delta) [nM]	Skin concentration [2] [µg/g]	Permeation rate [2] [ng/cm^2/hr]	IC50 (PI3K beta) [nM]	solubility [3, 4] [mg/mL]	solubility ([3]; excipient PEG400) [mg/mL]	solubility [3, 5] [mg/mL]	IC50 (PI3K alpha) [nM]	IC50 (PI3K gamma) [nM]
Cc1nn(C)cc1-n1c(=O)n(C)c2cnc3ccc(-c4cncc(OC(C)C)c4)cc3c21 [Example 58.1, 1-(1,3-Dimethyl-1H-pyrazol-4-yl)-8-(5-isopropoxy-pyridin-3-yl)-3-methyl-1,3-dihydro-imidazo[4,5-c]quinolin-2-one]	30.5	8	9.3 ± 6.2	0.5 ± 0.3	7	> 22	> 26	> 24	6	95
Cc1nn(C(C)C)cc1-n1c(=O)n(C)c2cnc3ccc(-c4ccc(N(C)C)nc4)cc3c21 [Example 4.1, 8-(6-Dimethylamino-pyridin-3-yl)-1-(1-isopropyl-3-methyl-1H-pyrazol-4-yl)-3-methyl-1,3-dihydro-imidazo[4,5-c]quinolin-2-one]	35.1	39	–	–	762	4.11 (≈ 9.31 mM)	> 20	> 20	60	407
Cc1nn(C)cc1-n1c(=O)n(C)c2cnc3ccc(-c4ccc(CO)nc4)cc3c21 [Example 16.2, 1-(1,3-Dimethyl-1H-pyrazol-4-yl)-8-(6-hydroxymethyl-pyridin-3-yl)-3-methyl-1,3-dihydro-imidazo[4,5-c]quinolin-2-one]	5.6	18	–	–	171	–	–	–	26	489
CCn1cc(-n2c(=O)n(C)c3cnc4ccc(-c5cnc(N(C)C)nc5)cc4c32)c(C)n1 [Example 6.4, 8-(2-Dimethylamino-pyrimidin-5-yl)-1-(1-ethyl-3-methyl-1H-pyrazol-4-yl)-3-methyl-1,3-dihydro-imidazo[4,5-c]quinolin-2-one]	29.7	44	–	–	495	–	–	–	60	–
CCn1cc(-n2c(=O)n(C)c3cnc4ccc(-c5ccc(NC)nc5)cc4c32)c(C)n1 [Example 118.4, 1-(1-Ethyl-3-methyl-1H-pyrazol-4-yl)-3-methyl-8-(6-methylamino-pyridin-3-yl)-1,3-dihydro-imidazo[4,5-c]quinolin-2-one]	15.9	19	–	–	130	–	–	–	20	–
CCOc1ccc(-c2ccc3ncc4c(c3c2)n(-c2cn(CC)nc2C)c(=O)n4C)cn1 [Example 3.5, 8-(6-Ethoxy-pyridin-3-yl)-1-(1-ethyl-3-methyl-1H-pyrazol-4-yl)-3-methyl-1,3-dihydro-imidazo[4,5-c]quinolin-2-one]	31.2	40	–	–	340	–	–	–	37	357
Cc1nn(C)cc1-n1c(=O)n(C)c2cnc3ccc(-c4cccc(S(=O)(=O)N(C)C)c4)cc3c21 [Example 53.1, 3-[1-(1,3-Dimethyl-1H-pyrazol-4-yl)-3-methyl-2-oxo-2,3-dihydro-1H-imidazo[4,5-c]quinolin-8-yl]-N,N-dimethyl-benzenesulfonamide]	–	12	–	–	51	–	–	–	16	190
CCOc1ccc(-c2ccc3ncc4c(c3c2)n(-c2cnn(C)c2C)c(=O)n4C)cn1 [Example 3.6, 1-(1,5-Dimethyl-1H-pyrazol-4-yl)-8-(6-ethoxy-pyridin-3-yl)-3-methyl-1,3-dihydro-imidazo[4,5-c]quinolin-2-one]	–	158	–	–	477	–	–	–	50	182
Cc1nn(C)cc1-n1c(=O)n(C)c2cnc3ccc(-c4cncc(N(C)S(C)(=O)=O)c4)cc3c21 [Example 121, N-{5-[1-(1,3-Dimethyl-1H-pyrazol-4-yl)-3-methyl-2-oxo-2,3-dihydro-1H-imidazo[4,5-c]quinolin-8-yl]-pyridin-3-yl}-N-methyl-methanesulfonamide]	–	18	–	–	93	–	–	–	19	184
COc1ccc(-c2ccc3ncc4[nH]c(=O)n(-c5cn(C)nc5C)c4c3n2)cc1OC [Example 249, 8-(3,4-dimethoxy-phenyl)-1-(1,3-dimethyl-1H-pyrazol-4-yl)-1,3-dihydro-1,3,5,9-tetraaza-cyclopenta[a]naphthalen-2-one]	22.1	8	–	–	33	–	–	–	5	125

Now those with a lower IC50 (PI3K delta), led by results:

Papp A→B [1] [×10⁻⁶ cm/s]	IC50 (PI3K delta) [nM]	Skin concentration [2] [µg/g]	Permeation rate [2] [ng/cm^2/hr]	IC50 (PI3K beta) [nM]	solubility [3, 4] [mg/mL]	solubility ([3]; excipient PEG400) [mg/mL]	solubility [3, 5] [mg/mL]	IC50 (PI3K alpha) [nM]	IC50 (PI3K gamma) [nM]	Structure (SMILES)
26.7	4	6.4 ± 3.5	<0.4	8	> 21	> 19	> 20	6	–	Cc1ncc(-c2ccc3ncc4c(c3c2)n(-c2cn(C)nc2C)c(=O)n4C)cc1OC(C)C [Example 84.1, 1-(1,3-Dimethyl-1H-pyrazol-4-yl)-8-(5-isopropoxy-6-methyl-pyridin-3-yl)-3-methyl-1,3-dihydro-imidazo[4,5-c]quinolin-2-one]
28.6	5	–	–	20	–	–	–	6	144	COc1ccc(-c2ccc3ncc4c(c3c2)n(-c2cn(C)nc2C)c(=O)n4C)cc1OC [Example 1.8, 8-(3,4-Dimethoxy-phenyl)-1-(1,3-dimethyl-1H-pyrazol-4-yl)-3-methyl-1,3-dihydro-imidazo[4,5-c]quinolin-2-one]
18.4	6	–	–	15	–	–	–	< 3	75	CCOc1cc(-c2ccc3ncc4c(c3c2)n(-c2cn(CC)nc2C)c(=O)n4C)ccc1OC [Example 28.1, 8-(3-Ethoxy-4-methoxy-phenyl)-1-(1-ethyl-3-methyl-1H-pyrazol-4-yl)-3-methyl-1,3-dihydro-imidazo[4,5-c]quinolin-2-one]
26.1	6	–	–	5	–	–	–	4	–	Cc1ncc(-c2ccc3ncc4c(c3c2)n(-c2cn(C)nc2C)c(=O)n4C)cc1OC(CF)CF [Example 189, 1-(1,3-Dimethyl-1H-pyrazol-4-yl)-8-[5-(2-fluoro-1-fluoromethyl-ethoxy)-6-methyl-pyridin-3-yl]-3-methyl-1,3-dihydro-imidazo[4,5-c]quinolin-2-one]
–	6	–	–	24	> 24	> 23	> 19	14	–	COCc1ncc(-c2ccc3ncc4c(c3c2)n(-c2cn(C)nc2C)c(=O)n4C)cc1OC(C)C [Example 191.1, 1-(1,3-Dimethyl-1H-pyrazol-4-yl)-8-(5-isopropoxy-6-methoxymethyl-pyridin-3-yl)-3-methyl-1,3-dihydro-imidazo[4,5-c]quinolin-2-one]

Reference: patent US20140005163A1 (NOVARTIS AG, priority 2010, published 2014)
